For the test, the target named is T1, human mineralocorticoid Receptor-α (MRα) (Homo sapiens, UniProt P08235).
T1 construct: made in house; host or cells: Sf21 insect cells (baculovirus), as described for GR
T1 sequence (P08235 1-984): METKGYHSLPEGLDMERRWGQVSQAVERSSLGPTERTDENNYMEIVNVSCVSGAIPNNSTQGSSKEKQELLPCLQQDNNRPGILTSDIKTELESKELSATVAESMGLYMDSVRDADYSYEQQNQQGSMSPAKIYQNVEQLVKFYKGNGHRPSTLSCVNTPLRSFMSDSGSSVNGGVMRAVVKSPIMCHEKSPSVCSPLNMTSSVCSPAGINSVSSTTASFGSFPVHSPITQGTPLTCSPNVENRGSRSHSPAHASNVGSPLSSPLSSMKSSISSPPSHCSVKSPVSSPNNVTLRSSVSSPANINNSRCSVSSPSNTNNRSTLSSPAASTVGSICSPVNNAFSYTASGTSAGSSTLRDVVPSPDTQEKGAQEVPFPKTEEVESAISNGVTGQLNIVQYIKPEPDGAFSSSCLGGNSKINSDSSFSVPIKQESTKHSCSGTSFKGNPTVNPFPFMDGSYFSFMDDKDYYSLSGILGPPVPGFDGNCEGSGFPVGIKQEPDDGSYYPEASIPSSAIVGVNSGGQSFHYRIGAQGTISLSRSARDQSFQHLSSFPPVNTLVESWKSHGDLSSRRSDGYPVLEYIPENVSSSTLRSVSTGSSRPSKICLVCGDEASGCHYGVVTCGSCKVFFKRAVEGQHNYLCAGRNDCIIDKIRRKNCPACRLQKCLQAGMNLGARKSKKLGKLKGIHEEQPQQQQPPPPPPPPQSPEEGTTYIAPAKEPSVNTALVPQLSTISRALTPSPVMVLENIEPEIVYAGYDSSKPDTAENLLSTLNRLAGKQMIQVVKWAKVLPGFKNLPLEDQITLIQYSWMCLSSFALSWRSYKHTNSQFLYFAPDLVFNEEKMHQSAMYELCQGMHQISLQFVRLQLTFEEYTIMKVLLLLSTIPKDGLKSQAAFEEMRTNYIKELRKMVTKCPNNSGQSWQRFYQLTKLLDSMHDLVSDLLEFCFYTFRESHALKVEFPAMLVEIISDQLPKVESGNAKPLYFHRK
Briefly: Mineralocorticoid binding assay ([3H]aldosterone displacement, MR lysate). The procedure: Human mineralocorticoid receptor protein was prepared from a baculovirus expression plasmid comprising cDNA encoding human mineralocorticoid Receptor-α (MRα), as described for GR (Example 158).
Binding assay samples were prepared in separate mini-tubes in a 96-well format at 4° C. Each binding assay sample was prepared in a volume of 250 μl of MR-Assay Buffer (10% glycerol, 10 mM sodium phosphate, 10 mM potassium fluoride, 20 mM sodium molybdate, 0.25 mM CHAPS, 2 mM DTT, (adjusted to pH 7.35)) containing 5-10 μg of MR lysate; 2-4 nM of [^3H]aldosterone; unlabeled aldosterone; and a test compound. Each test compound was assayed at several different concentrations, ranging from 0 to 10^−5 M and each was tested in the presence and in the absence of several different concentrations of unlabeled aldosterone. Each concentration of each test compound was assayed in triplicate. The assay samples were incubated for 16 hours at 4° C.
After incubation, protein was precipitated with hydroxylapatite, collected, and counted as described in Example 158 for GR. Specific binding for a particular sample was calculated using the same equation as was used for GR: (Sample CPM)−(Average Non-specific CPM) Average Non-specific CPM was defined as the amount of radioactivity from samples comprising an excess (i.e. 1000 nM) of unlabeled aldosterone. […] Ki values were determined using the Cheng-Prusoff equation using a previously determined Kd value for aldosterone: Ki=IC50/(1+[L]/Kd) [L]=concentration of labeled aldosterone Kd=dissociation constant of labeled aldosterone

SMILES strings stand for the structures.

In general, Ki refers to a measure of affinity in units of concentration, obtained from inhibition or displacement.

In the case of `Cc1cc(-c2csc(C#N)c2)c(Cl)c2c1NC(C)(C)CC2C` (racemic) [Compound 244, (±)-5-Chloro-6-(5-cyanothiophen-3-yl)-1,2,3,4-tetrahydro-2,2,4,8-tetramethylquinoline], the Ki turned out to be 6 nM.
The value for `CC1=CC(C)(C)Nc2ccc(-c3cccc(C(N)=O)c3)c(Cl)c21` [Compound 239, 6-(3-Carbamoylphenyl)-5-chloro-1,2-dihydro-2,2,4-trimethylquinoline] was 22 nM.
As for `CC(=O)Oc1c(-c2cccc(C#N)c2)cc(C)c2c1C(C)CC(C)(C)N2` (racemic) [Compound 245, (±)-5-Acetoxy-6-(3-cyanophenyl)-1,2,3,4-tetrahydro-2,2,4,8-tetramethylquinoline], the Ki was 47 nM.
The figure for `Cc1cc(-c2cncnc2)c(Cl)c2c1NC(C)(C)CC2C` (racemic) [Compound 256, (±)-5-Chloro-1,2,3,4-tetrahydro-2,2,4,8-tetramethyl-6-(pyrimidin-5-yl)quinoline] is 60 nM; for `CC1=CC(C)(C)Nc2c(C)cc(-c3cccc(C)c3)c(Cl)c21` [Compound 234, 5-Chloro-1,2-dihydro-2,2,4,8-tetramethyl-6-(3-methylphenyl)quinoline] it is 85 nM; for `CCC(=O)c1cccc(-c2cc(C)c3c(c2Cl)C(C)=CC(C)(C)N3)c1` [Compound 238, 5-Chloro-1,2-dihydro-2,2,4,8-tetramethyl-6-[3-(propionyl)phenyl]quinoline] it is 18 nM.
The value for `CC1=CC(C)(C)Nc2ccc(-c3cccc(C(F)(F)F)c3)c(Cl)c21` [Compound 230, 5-Chloro-1,2-dihydro-2,2,4-trimethyl-6-[3-(trifluoromethyl)phenyl]quinoline] was 12 nM.

These data come from patent US20070254917A1, “INTRACELLULAR RECEPTOR MODULATOR COMPOUNDS AND METHODS” (priority 2004, published 2007).
